Experimental findings from patent US8871267B2, “Protein matrix materials, devices and methods of making and using thereof” (Gel-Del Technologies, Inc., priority 1998, dated 2014) are described below.

Experiment [1] deals with hepatocytes. Nature of the experiment: Biological activity of released hEGF in in-vitro cell culture. Format: cell-based. Conditions: subsequent studies using hepatocytes.
The target in experiment [2] is T1, xanthine oxidase (Bos taurus, UniProt P80457).
T1 construct: purchased Sigma Chemical Company, St. Louis Mo
T1 sequence (P80457 2-1332 limits assumed): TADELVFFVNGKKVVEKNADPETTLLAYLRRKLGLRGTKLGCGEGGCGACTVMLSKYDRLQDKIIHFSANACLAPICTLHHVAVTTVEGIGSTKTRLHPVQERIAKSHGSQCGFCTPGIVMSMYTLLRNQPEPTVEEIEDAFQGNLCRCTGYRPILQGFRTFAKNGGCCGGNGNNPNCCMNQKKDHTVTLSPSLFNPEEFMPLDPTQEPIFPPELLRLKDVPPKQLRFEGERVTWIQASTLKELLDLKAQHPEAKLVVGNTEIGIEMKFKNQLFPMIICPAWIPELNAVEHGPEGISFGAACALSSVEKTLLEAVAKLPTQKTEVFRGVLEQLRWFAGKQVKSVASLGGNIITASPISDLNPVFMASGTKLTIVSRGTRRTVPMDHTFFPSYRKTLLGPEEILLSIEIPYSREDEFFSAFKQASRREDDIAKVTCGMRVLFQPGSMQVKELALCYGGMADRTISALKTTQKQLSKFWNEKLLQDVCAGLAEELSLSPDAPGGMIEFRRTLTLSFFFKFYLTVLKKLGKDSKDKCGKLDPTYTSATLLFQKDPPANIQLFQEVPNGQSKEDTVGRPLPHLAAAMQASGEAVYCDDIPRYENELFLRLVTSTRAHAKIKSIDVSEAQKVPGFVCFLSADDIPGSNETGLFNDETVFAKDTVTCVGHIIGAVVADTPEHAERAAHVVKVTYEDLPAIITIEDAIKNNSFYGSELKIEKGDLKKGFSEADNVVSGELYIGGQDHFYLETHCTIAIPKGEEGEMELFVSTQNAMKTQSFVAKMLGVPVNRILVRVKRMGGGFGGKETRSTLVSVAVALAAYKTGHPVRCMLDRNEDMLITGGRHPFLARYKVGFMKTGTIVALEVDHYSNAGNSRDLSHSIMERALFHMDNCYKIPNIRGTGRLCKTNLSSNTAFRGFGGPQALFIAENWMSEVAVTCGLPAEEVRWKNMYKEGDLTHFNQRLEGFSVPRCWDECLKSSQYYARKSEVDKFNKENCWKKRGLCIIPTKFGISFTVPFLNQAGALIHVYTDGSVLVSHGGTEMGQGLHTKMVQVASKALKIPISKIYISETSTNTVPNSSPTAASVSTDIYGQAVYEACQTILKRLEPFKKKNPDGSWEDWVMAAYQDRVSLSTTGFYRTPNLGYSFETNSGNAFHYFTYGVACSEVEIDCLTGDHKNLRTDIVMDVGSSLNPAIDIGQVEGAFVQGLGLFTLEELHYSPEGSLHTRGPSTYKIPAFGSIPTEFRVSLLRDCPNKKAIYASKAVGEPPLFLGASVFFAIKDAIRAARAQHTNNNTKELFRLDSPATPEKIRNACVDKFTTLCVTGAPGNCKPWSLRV
Put plainly: Enzyme activity of xanthine oxidase in the device piece (Sigma Enzymatic Assay of Superoxide Dismutase protocol). Format: biochemical. Conditions: 0.01 unit solution. Here is the method:
A single cylinder piece, prepared as described above in Example 1, was added to a reaction chamber in a spectrophotometer containing xanthine, cytochrome C and other reactants according to previously described superoxide dismutase protocol (Sigma Quality Control Test Procedure EC 1.15.1.1 “Enzymatic Assay of Superoxide Dismutase”) enzyme activity of the enzyme xanthine oxidase in the piece was calculated at 0.0005 delta absorbance min (absorbance measured at 550 mm where no enzyme activity produces 0.00000 change in absorbance). In comparison to a 0.01 unit solution of xanthine oxidase, which produced 0.0250 delta absorbance/min, the activity of the xanthine oxidase in the piece equaled 1% of the control solution in a time period of only 3 minutes.

Take “hEGF: recombinant human epidermal growth factor (R&D System) (NSDSECPLSHDGYCLHDGVCMYIEALDKYACNCVVGYIGERCQYRDLKWWELR; not fully specified; Epidermal growth factor; UniProt P01133 971-1023, looked up)”: the “biological activity of released hEGF” value in experiment [1] was “has biological activity”.
With xanthine oxidase, the “rate produced by xanthine oxidase solution” value in experiment [2] was 0.0250 delta absorbance/min.
